Reference: US12031152B2, “Nutrient media for the production of slaughter-free meat” (Upside Foods, Inc., priority 2020, dated 2024)

Key:
[1] = Safety assessment framework: risk categorization of media components
Procedure: A safety assessment was conducted on each component of a given cell culture media under the procedure outlined below. […] Further overview of the categorical framework for ensuring that culture media components are safe and suitable for their intended use in meat production are outlined below according to their category designation. A list of media components used during meat production along with worst-case exposure estimates and relevant authoritative limits or published toxicological/safety data supporting their use is presented in Table 16. • Category 1: These cell culture media components are food ingredients/additives that are GRAS or permitted by federal regulation without limitation on use. Exemplary compounds in this category include innocuous ingredients such as sugars, pH buffers, water soluble vitamins, and common antioxidants such as tocopherols. • Category 2. These cell culture media components are common dietary nutrients and are anticipated to have GRAS status for food use or be permitted by regulation for addition to food. Examples of such compounds include most of the inorganic salts and macronutrients that are present within the cell culture media. […] In some instances, consideration of established safe levels (e.g., ADI, UL) derived from a relevant authoritative body (e.g., U.S. FDA, EFSA, JECFA, FSANZ, U.S. EPA) may be leveraged to support safety. If comparisons of anticipated dietary intakes relative to an authoritative reference intake value is used, consideration of additive intakes from all dietary sources may be considered. In the absence of an authoritative reference intake value, published NOAELs from animal toxicology studies may be used to evaluate safety using standard scientific procedures for food safety evaluation. A margin of exposure (MoE) of 100-fold or greater between the NOAEL and estimated dietary intakes from food exposures is typically considered adequate to support safety. In situations where the MoE is <100-fold, additional measures for further reduction of the media component may be necessary, or further characterization of intraspecies/interspecies differences in metabolism may be necessary. These situations also require careful consideration of the regulatory status on a case-by-case basis (e.g., premarket approval as a food additive or GRAS evaluation required). • Category 3. […] For Category 3 substances a final consideration in the safety assessment process may involve hazard characterization of the potential for a substance to produce toxic biological effects outside of the endpoints measured in a sub-chronic rat toxicity study. […] Considerations for allergenicity, biological effects in humans (e.g., effects on blood pressure), and synergistic effects with other media components also may be evaluated. […]

[2] = Margin between estimated intake of a 65 kg adult and rat NOAEL; settings: 65 kg adult
Procedure: A safety assessment was conducted on each component of a given cell culture media under the procedure outlined below. […] Further overview of the categorical framework for ensuring that culture media components are safe and suitable for their intended use in meat production are outlined below according to their category designation. A list of media components used during meat production along with worst-case exposure estimates and relevant authoritative limits or published toxicological/safety data supporting their use is presented in Table 16. • Category 1: These cell culture media components are food ingredients/additives that are GRAS or permitted by federal regulation without limitation on use. Exemplary compounds in this category include innocuous ingredients such as sugars, pH buffers, water soluble vitamins, and common antioxidants such as tocopherols. • Category 2. These cell culture media components are common dietary nutrients and are anticipated to have GRAS status for food use or be permitted by regulation for addition to food. Examples of such compounds include most of the inorganic salts and macronutrients that are present within the cell culture media. […] In some instances, consideration of established safe levels (e.g., ADI, UL) derived from a relevant authoritative body (e.g., U.S. FDA, EFSA, JECFA, FSANZ, U.S. EPA) may be leveraged to support safety. If comparisons of anticipated dietary intakes relative to an authoritative reference intake value is used, consideration of additive intakes from all dietary sources may be considered. […] For Category 3 substances a final consideration in the safety assessment process may involve hazard characterization of the potential for a substance to produce toxic biological effects outside of the endpoints measured in a sub-chronic rat toxicity study. […] Considerations for allergenicity, biological effects in humans (e.g., effects on blood pressure), and synergistic effects with other media components also may be evaluated. […]

[3] = ADI of trace elements and other components
Text: (§1) Several trace elements are essential to cell metabolism and growth. […] As a novel alternative to formulating trace elements directly, the present disclosure discloses the identification and testing of food-safe complexes that innately contain trace elements.

[4] = Maximum (worst-case) dietary exposure estimate per 100 g serving; settings: assumes complete transfer of media components to the finished product on a wt/wt basis
Procedure: The average daily intake (ADI) is conventionally determined as a result of a safety factor of 100-fold below the experimentally derived No Observable Adverse Effect Limits (NOAEL) for an appropriate animal species for sub-chronic or acute exposure. […] The ADI is determined in an appropriately sensitive species, usually rodent, and it is reported as mg of substance/kg of animal body weight/24-hour period. Calculating the maximum theoretical concentration of each media compound in the final product is done by assuming 100% incorporation of the compound from the media into the product.
A safety assessment was conducted on each component of a given cell culture media under the procedure outlined below.

[5] = cited from earlier work; for Safe Reference Level for Human Dietary Intake: UL: Tolerable Upper Limit
cells [6] = settings: FAC 0.5 mg/ml-50 mg/ml, up to 275 hours, vs cells without FAC
Text: as §1

cells [7] = assay: Screening of cobalt compounds to replace cobalt chloride; assay type: cell-based; settings: replacement of cobalt chloride
Text: Cobalt is an essential cofactor nutrient for many enzymatic pathways that contribute to metabolic and cellular function. Cobalt chloride is a commonly used source of cobalt in culture media. Cobalt chloride is strictly prohibited by the FDA for use in food. In order to find a suitable replacement, many cobalt compounds were screened. Eventually, Vitamin B12 in the form of cyanocobalamin, which contains bioavailable cobalt at its chiral center, was found. […] In some embodiments the method comprises removing cobalt chloride. In some embodiments the method comprises replacing cobalt chloride with cyanocobalamin (Vit B12).

Adherent Gallus cells = assay: Cellular response to cis recombinant Gallus FGF-2 vs commercial human recombinant FGF-2; assay type: cell-based; settings: growth factor at 10 μg/L and 100 μg/L, five days
Procedure: Adherent Gallus cells were thawed and seeded at a density of 5000 cells/cm^2 in a T25-flask. One medium was prepared according to standard media hydration protocols. Dry powder media was added to DI water in a clean vessel and allowed to stir until all components were dissolved. The pH and osmolality of the medium were adjusted to 7.4 and 300 mOsm/kg respectively. The medium was then filtered using a 0.22 μm PES filtration unit and stored at 4° C. until use. Prior to use, the medium was allowed to come up to room temperature. Cells were seeded in the inner wells of a 96-well cell culture plate. Wells were either seeded with one of two different FGF-2 growth factors, a recombinant Gallus FGF-2 produced as described in Example 5, or a commercially available recombinant human FGF-2, or without any growth factors. Each growth factor was seeded at two different concentrations, 10 μg/L or 100 μg/L. Test conditions were all seeded in triplicate at a density of 5000 cells/cm^2. Cells were incubated at 39° C. in 5% CO2 in a Biotek BioSpa Live Cell Analysis System (BioSpa) for five days. Cells were imaged every 12 hours using the BioSpa. Images were processed using BioTeck Gen5 Data Analysis software. Data was then exported and analyzed using Microsoft Excel and SAS JMP.

For `N[C@@H](CCC(=O)[O-])C(=O)O.O.[Na+]` [L-GLUTAMIC ACID MONOSODIUM H20], which “Risk Assessment Category” value [1] is on record?
Its value is 2.

Which “Intakes below NOAEL” value ([2]; NOAEL from 2 year rat study) does the source give for `O=C(O)CCC(=O)O` [SUCCINIC ACID] here?
Its value is “adult are 257-fold”.

For `O.O.[Na+].[Na+].[O]=[Mo](=[O])([O-])[O-]` [SODIUM MOLYBDATE-2H2O], which ADI [3] is on record?
The ADI was 1.41 mg/kg bw-day.

For `O.O.O.O.O.O.O=C([O-])CCC(=O)[O-].[Na+].[Na+]` [SODIUM SUCCINATE-2Na 6H20], which “Intakes below NOAEL” value ([2]; NOAEL from 2 year rat study) is on record?
Its value is “are >1000 fold below”.

For `O=P([O-])([O-])O.[Na+].[Na+]` [SODIUM PHOSPHATE DIBASIC-ANHY], which “Maximum Estimated Exposure per 100 g serving” value [4] is on record?
Its value is 4.3 g.

What about the “Risk Assessment Category” value [1] of the same molecule?
The value was 1.

For `Cl.Cl.NCCCCN` [PUTRESCINE-2HCl], which ADI [3] is on record?
Its ADI is 0.018 mg/kg bw-day.

Which “Safe Reference Level for Human Dietary Intake: UL (in words)” value ([5]; NS = not specified as no evidence of toxicity from excess intake known) does the source give for `O=S(=O)([O-])[O-].[Mg+2]` [MAGNESIUM SULFATE (ANHY)] here?
The value was “No UL for food”.

For `O.O.O.O.O.O.[Cl-].[Cl-].[Sr+2]` [STRONTIUM CHLORIDE HEXAHYDRATE], which ADI [3] is on record?
The ADI was 1.87 mg/kg bw-day.

With ferric ammonium citrate [FAC] as the molecule, how does the “cell viability over time” value (cells [6]) read?
The value was “maintain high viability over time”.

With `Cc1cn([C@H]2C[C@H](O)[C@@H](CO)O2)c(=O)[nH]c1=O` [THYMIDINE SYNTHETIC, THYMIDINE] as the molecule, how does the ADI [3] read?
The ADI was 83.1 mg/kg bw-day.

For `CC(=O)Oc1c(C)c(C)c2c(c1C)CCC(C)(CCCC(C)CCCC(C)CCCC(C)C)O2` (racemic) [DL-ALPHA-TOCOPHEROL ACETATE], which “Safe Reference Level for Human Dietary Intake: UL” value [5] is on record?
The value was “UL = 1000 mg/d”.

For `NCCO` [MONOETHANOLAMINE], which “Intakes below NOAEL” value ([2]; rat NOAEL) is on record?
Its value is “kg adult are 128 fold”.

For `C=C1CC[C@H](O)C/C1=C/C=C1\CCC[C@]2(C)[C@@H]([C@H](C)/C=C/[C@H](C)C(C)C)CC[C@@H]12` [VITAMIN D2 (ERGOCALCIFEROL), ERGOCALCIFEROL], which “Safe Reference Level for Human Dietary Intake: UL” value [5] is on record?
The value was “UL = 100 ug/d”.

For `O=C(O)CCCCC1CCSS1` (racemic) [DL-ALPHA-LIPOIC ACID], which ADI [3] is on record?
The ADI was 5.14 mg/kg bw-day.

For “cyanocobalamin [VITAMIN B12 (CYANCOCOBALAMIN)]”, which “supply of cobalt to promote cellular function” value (cells [7]) is on record?
Its value is “sufficiently supplied cobalt”.

For `CCCCCCCC/C=C\CCCCCCCC(=O)OCCOCC(OCCO)C1OCC(OCCO)C1OCCO` (stereo not shown) [TWEEN 80], which “Safe Reference Level for Human Dietary Intake: ADI” value ([5]; Acceptable Daily Intake) is on record?
Its value is “ADI = 10 mg/kg bw/d”.

For FERRIC CITRATE, which “Risk Assessment Category” value [1] is on record?
The value was 2.

For CALCIUM D-PANTOTHENATE, which “Risk Assessment Category” value [1] is on record?
Its value is 1.

Which “Safe Reference Level for Human Dietary Intake: UL” value [5] does the source give for `Cc1c(C)c2c(c(C)c1O)CC[C@@](C)(CCC[C@H](C)CCC[C@H](C)CCCC(C)C)O2` [D-ALPHA-TOCOPHEROL] here?
Its value is “UL = 1000 mg/d”.

For “commercial human FGF-2: commercially available recombinant human FGF-2 [reference compound]”, which cellular response (Adherent Gallus cells) is on record?
Its cellular response is “equivalent activity”.

What about the cellular response (Adherent Gallus cells; listed as human recombinant FGF-2) of the same molecule?
Its cellular response is “equivalent response”.

For `[Cl-].[Rb+]` [RUBIDIUM CHLORIDE], which ADI [3] is on record?
Its ADI is 0.051 mg/kg bw-day.

B1: cis Gallus FGF-2: recombinant Gallus FGF-2 produced in E. coli as described in Example 5 (protein, UniProt P48800 13-158, looked up)
Fibroblast growth factor 2: PALPDDGGGGAFPPGHFKDPKRLYCKNGGFFLRINPDGRVDGVREKSDPHIKLQLQAEERGVVSIKGVSANRFLAMKEDGRLLALKCATEECFFFERLESNNYNTYRSRKYSDWYVALKRTGQYKPGPKTGPGQKAILFLPMSAKS
What does the source list for B1?
cellular response (Adherent Gallus cells): equivalent activity; cellular response (Adherent Gallus cells; listed as cis recombinant Gallus FGF-2): equivalent response
